Values joined by “and” are separate entries in the source; they are usually repeats but may differ in a detail not shown here. Equal entries are not always repeated. After the bases stand the sugars from the 5' end (letter, count) and the backbone: PS all phosphorothioate, else s phosphorothioate and o phosphodiester by linkage. Methylation of C is not given here. k = constrained ethyl (cEt); d = 2'-deoxy (DNA)
Target: MALAT1
Conditions: ASO, A431, 0.005 µM

Row | Sequence | target mRNA inhibition
1 | AAAACTTATCTGCGGT (sugars k3 d10 k3, PS) | 54% and 41%
2 | AAAAGTAGTTCTTCGG (sugars k3 d10 k3, PS) | 18%
3 | AAACATTGCCTACCAC (sugars k3 d10 k3, PS) | -9%
4 | AAACCTGGGCTCCCGG (sugars k3 d10 k3, PS) | 20%
5 | AAAGATCGCCTTCAAA (sugars k3 d10 k3, PS) | 32%
6 | AAATACGACTGCTTAA (sugars k3 d10 k3, PS) | 22%
7 | AAATCATTGGGAGTTA (sugars k3 d10 k3, PS) | 24%
8 | AAATCCCCTAGGGAAG (sugars k3 d10 k3, PS) | -8%
9 | AAATCCCTTTACACCT (sugars k3 d10 k3, PS) | 23%
10 | AAATCCTGATCTGGTC (sugars k3 d10 k3, PS) | 27%
11 | AAATCGGAGCAGCACG (sugars k3 d10 k3, PS) | 16%
12 | AAATGGCGGACTTTCT (sugars k3 d10 k3, PS) | 17%
13 | AAATTACACCAGTCCT (sugars k3 d10 k3, PS) | 45%
14 | AAATTGCACTCGCTCC (sugars k3 d10 k3, PS) | 28%
15 | AACAACTCGCATCACC (sugars k3 d10 k3, PS) | 17%
16 | AACAAGTAAGCCCCAC (sugars k3 d10 k3, PS) | 11%
17 | AACAATTACCTAAACC (sugars k3 d10 k3, PS) | 16%
18 | AACAGGTCATCTATTC (sugars k3 d10 k3, PS) | 33%
19 | AACATATTGCCGACCT (sugars k3 d10 k3, PS) | 45%

Row | Sequence | target mRNA inhibition
20 | AACCACAACAATTTAG (sugars k3 d10 k3, PS) | 16%
21 | AACCCCAAGACCAAAC (sugars k3 d10 k3, PS) | 11%
22 | AACCTATTGACTATAT (sugars k3 d10 k3, PS) | 19%
23 | AACGAAACATTGGCAC (sugars k3 d10 k3, PS) | 48%
24 | AACGGGTCATCAAACA (sugars k3 d10 k3, PS) | -25%
25 | AACTAGCACCTGCAGA (sugars k3 d10 k3, PS) | 17%
26 | AACTTATCTGTTAACA (sugars k3 d10 k3, PS) | 30%
27 | AACTTGGAAGTTGATA (sugars k3 d10 k3, PS) | 19%
28 | AAGACTAAAGGCTTCA (sugars k3 d10 k3, PS) | 21%
29 | AAGAGCATTGGAGATC (sugars k3 d10 k3, PS) | 33%
30 | AAGCACTTATCCCTAA (sugars k3 d10 k3, PS) | 25%
31 | AAGCATTCCTTCGGAT (sugars k3 d10 k3, PS) | -8%
32 | AAGCATTGCCCTTCTA (sugars k3 d10 k3, PS) | 46%
33 | AAGCCCACCCTCTAAG (sugars k3 d10 k3, PS) | 21%
34 | AAGCCGCCTGCTACCT (sugars k3 d10 k3, PS) | -16%
35 | AAGCTACAACAAGTAA (sugars k3 d10 k3, PS) | 10%
36 | AAGGCTCCATGGTTGT (sugars k3 d10 k3, PS) | 32%
37 | AAGTAGACCAACTAAG (sugars k3 d10 k3, PS) | -22%
38 | AAGTATTACTCTAATC (sugars k3 d10 k3, PS) | 9%

Row | Sequence | target mRNA inhibition
39 | AAGTGCTCACAAGGCA (sugars k3 d10 k3, PS) | -16%
40 | AAGTGGTTGCCCGCTT (sugars k3 d10 k3, PS) | 22%
41 | AATACTTCATTACCCC (sugars k3 d10 k3, PS) | 45%
42 | AATCACTACTCCAAGC (sugars k3 d10 k3, PS) | 29%
43 | AATCATACTCCAGTCG (sugars k3 d10 k3, PS) | 35%
44 | AATCCCCCCCAAGATT (sugars k3 d10 k3, PS) | -5%
45 | AATCCTGATCTGGTCC (sugars k3 d10 k3, PS) | 46% and 66%
46 | AATCGCACTGGCTCCT (sugars k3 d10 k3, PS) | 25%
47 | AATCGCCATGGAAAGC (sugars k3 d10 k3, PS) | -4%
48 | AATGACGCAATTCTCC (sugars k3 d10 k3, PS) | 21%
49 | AATGGTAGATTCCGTA (sugars k3 d10 k3, PS) | 47%
50 | AATTAATGCACTGGTA (sugars k3 d10 k3, PS) | 19%
51 | AATTACACCAGTCCTT (sugars k3 d10 k3, PS) | 42%
52 | AATTACCTAAACCCAC (sugars k3 d10 k3, PS) | 0%
53 | AATTGCACTCGCTCCT (sugars k3 d10 k3, PS) | 29%
54 | ACAAATACGACTGCTT (sugars k3 d10 k3, PS) | 16%
55 | ACAAGGCAAATCGCCA (sugars k3 d10 k3, PS) | 17%
56 | ACACCTTGAGTCATTT (sugars k3 d10 k3, PS) | 50%
